Biological target: human LPA1 receptor (Homo sapiens (Human), UniProt Q92633)
Test: Beta-arrestin recruitment assay to determine IC50 values for human LPAR1
Assay type: cell-based
Conditions: antagonist mode, Tango EDG2-bla U2OS cells, LPA 18:1 500 nM final
Procedure, shortened: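 Tango EDG2-bla U2OS cells: LPA-driven beta-arrestin/TEV protease recruitment releases Gal4-VP16, inducing beta-lactamase reporter read with live-cell substrate. Cells seeded 20 h at 37 °C beforehand. IC50 is antagonist concentration inhibiting 50% of maximal response.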

human LPA1 receptor, sequence (Q92633 whole entry): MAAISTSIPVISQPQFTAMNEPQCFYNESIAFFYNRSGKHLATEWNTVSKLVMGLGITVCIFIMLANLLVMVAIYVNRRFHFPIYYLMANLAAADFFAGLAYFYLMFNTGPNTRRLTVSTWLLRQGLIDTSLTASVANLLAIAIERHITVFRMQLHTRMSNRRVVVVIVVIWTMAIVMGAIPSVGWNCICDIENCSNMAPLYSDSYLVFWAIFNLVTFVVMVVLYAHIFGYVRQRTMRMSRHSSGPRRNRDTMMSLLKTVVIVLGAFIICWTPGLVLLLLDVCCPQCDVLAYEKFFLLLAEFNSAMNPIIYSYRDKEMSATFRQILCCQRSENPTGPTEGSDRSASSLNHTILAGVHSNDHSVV

Compound	IC50
CCOC(=O)c1cnc(N2CC(C(=O)Nc3ccc(C)nc3OC(F)F)(c3ccccc3C(C)C)C2)o1 [Ex 18-31, ethyl 2-(3-((2-(difluoromethoxy)-6-methylpyridin-3-yl)carbamoyl)-3-(2-isopropylphenyl)azetidin-1-yl)oxazole-5-carboxylate]	20 nM
COc1cc(Cl)cnc1NC(=O)C1(c2ccccc2C(C)C)CN(C(=O)CC(C)(C)C(=O)O)C1 [Ex 79-4, 4-(3-((5-chloro-3-methoxypyridin-2-yl)carbamoyl)-3-(2-isopropylphenyl)azetidin-1-yl)-2,2-dimethyl-4-oxobutanoic acid]	123 nM
Methyl 4-(3-((5-bromo-3-(difluoromethoxy)pyridin-2-yl)carbamoyl)-3-(2-isopropylphenyl)azetidin-1-yl)-2,2-dimethyl-4-oxobutanoate [Ex 79-2]	11 nM
Cc1ccc(NC(=O)C2(c3ccccc3C(C)C)CCNC2)c(OC(F)F)n1 (centres unmarked) [Ex 10, N-(2-(difluoromethoxy)-6-methylpyridin-3-yl)-3-(2-isopropylphenyl)pyrrolidine-3-carboxamide]	7 nM
Cc1ccc(NC(=O)C2(c3ccccc3C(C)C)CN(c3cnc(C4(C(=O)O)CC4)nc3)C2)c(OC(F)F)n1 [Ex 18-17, 1-(5-(3-((2-(difluoromethoxy)-6-methylpyridin-3-yl)carbamoyl)-3-(2-isopropylphenyl)azetidin-1-yl)pyrimidin-2-yl)cyclopropane-1-carboxylic acid]	8 nM
Cc1ccc(NC(=O)C2(c3ccccc3C(C)C)CN(c3nnn[nH]3)C2)c(OC(F)F)n1 [Ex 20, N-(2-(difluoromethoxy)-6-methylpyridin-3-yl)-3-(2-isopropylphenyl)-1-(1H-tetrazol-5-yl)azetidine-3-carboxamide]	37 nM
CCCc1ccccc1C1(C(=O)Nc2ccc(C)nc2OC(F)F)CN(C(=O)CC(C)(C)C(=O)O)C1 [Ex 31-7, 4-(3-((2-(difluoromethoxy)-6-methylpyridin-3-yl)carbamoyl)-3-(2-propylphenyl)azetidin-1-yl)-2,2-dimethyl-4-oxobutanoic acid]	8 nM
Cc1ccc(NC(=O)C2(c3ccccc3C(C)C)CN(C(=O)OC3(C(=O)O)CC3)C2)c(OC(F)F)n1 [Ex 14-8, 1-((3-((2-(difluoromethoxy)-6-methylpyridin-3-yl)carbamoyl)-3-(2-isopropylphenyl)azetidine-1-carbonyl)oxy)cyclopropane-1-carboxylic acid]	14 nM
Cc1ccc(NC(=O)C2(c3nccnc3C(C)C)CNC2)c(OC(F)F)n1 [Ex 68, N-(2-(difluoromethoxy)-6-methylpyridin-3-yl)-3-(3-isopropylpyrazin-2-yl)azetidine-3-carboxamide]	7620 nM
Cc1ccc(NC(=O)C2(c3ccccc3C(C)C)CN(S(=O)(=O)C3(CC(=O)O)CC3)C2)c(OC(F)F)n1 [Ex 13-14, 2-(1-((3-((2-(difluoromethoxy)-6-methylpyridin-3-yl)carbamoyl)-3-(2-isopropylphenyl)azetidin-1-yl)sulfonyl)cyclopropyl)acetic acid]	10 nM
Cc1ccc(NC(=O)C2(c3ccccc3C(C)C)CN(S(=O)(=O)CCC(=O)NOCc3ccccc3)C2)c(OC(F)F)n1 [Ex 13-28, 1-((3-((benzyloxy)amino)-3-oxopropyl)sulfonyl)-N-(2-(difluoromethoxy)-6-methylpyridin-3-yl)-3-(2-isopropylphenyl)azetidine-3-carboxamide]	110 nM
COC(=O)c1n[nH]cc1CN1CC(C(=O)Nc2ccc(C)nc2OC(F)F)(c2ccccc2C(C)C)C1 [Ex 11-37, methyl 4-((3-((2-(difluoromethoxy)-6-methylpyridin-3-yl)carbamoyl)-3-(2-isopropylphenyl)azetidin-1-yl)methyl)-1H-pyrazole-3-carboxylate]	6 nM
Cc1ccc(NC(=O)C2(c3ccccc3C(C)C)CN(C(=O)C3CS(=O)(=O)C3)C2)c(OC(F)F)n1 [Ex 12-129, N-(2-(difluoromethoxy)-6-methylpyridin-3-yl)-1-(1,1-dioxidothietane-3-carbonyl)-3-(2-isopropylphenyl)azetidine-3-carboxamide]	58 nM
Cc1ccc(NC(=O)C2(c3ccccc3C(C)C)CN(c3nc(C(=O)O)co3)C2)c(OC(F)F)n1 [Ex 18-28, 2-(3-((2-(difluoromethoxy)-6-methylpyridin-3-yl)carbamoyl)-3-(2-isopropylphenyl)azetidin-1-yl)oxazole-4-carboxylic acid]	6 nM
Cc1ccc(NC(=O)C2(c3ccccc3C(C)C)CNC2)c(OC(C)C)n1 [Ex 2, N-(2-isopropoxy-6-methylpyridin-3-yl)-3-(2-isopropylphenyl)azetidine-3-carboxamide]	320 nM
Cc1ccc(NC(=O)C2(c3ccccc3C(C)C)CN(CC3(C(=O)O)CC3)C2)c(OC(F)F)n1 [Ex 11-27, 1-((3-((2-(difluoromethoxy)-6-methylpyridin-3-yl)carbamoyl)-3-(2-isopropylphenyl)azetidin-1-yl)methyl)cyclopropane-1-carboxylic acid]	38 nM

Compound	IC50
Cc1ccc(NC(=O)C2(c3ccccc3C(C)C)CN(CCOCC(=O)O)C2)c(OC(F)F)n1 [Ex 11-75, 2-(2-(3-((2-(difluoromethoxy)-6-methylpyridin-3-yl)carbamoyl)-3-(2-isopropylphenyl)azetidin-1-yl)ethoxy)acetic acid]	29 nM
CCOC(=O)c1cc(CN2CC(C(=O)Nc3ccc(C)nc3OC(F)F)(c3ccccc3C(C)C)C2)on1 [Ex 11-34, ethyl 5-((3-((2-(difluoromethoxy)-6-methylpyridin-3-yl)carbamoyl)-3-(2-isopropylphenyl)azetidin-1-yl)methyl)isoxazole-3-carboxylate]	79 nM
Cc1ccc(NC(=O)C2(c3ccccc3C(C)C)CN(S(=O)(=O)NC3CC3)C2)c(OC(F)F)n1 [Ex 15-13, 1-(N-cyclopropylsulfamoyl)-N-(2-(difluoromethoxy)-6-methylpyridin-3-yl)-3-(2-isopropylphenyl)azetidine-3-carboxamide]	11 nM
CC(C)c1ccccc1C1(C(=O)Nc2cccnc2OC(F)F)CN(c2ccc(C#N)cn2)C1 [Ex 18-23, 1-(5-cyanopyridin-2-yl)-N-(2-(difluoromethoxy)pyridin-3-yl)-3-(2-isopropylphenyl)azetidine-3-carboxamide]	4 nM
COc1ccc(NC(=O)C2(c3ccccc3C(C)C)CN(C(=O)OC(C)(C)C)C2)c(OC)n1 [Ex 6-1, tert-butyl 3-((2,6-dimethoxypyridin-3-yl)carbamoyl)-3-(2-isopropylphenyl)azetidine-1-carboxylate]	605 nM
Cc1ccc(NC(=O)C2(c3ccccc3C(C)C)CN(C(=O)CCC(=O)NS(C)(=O)=O)C2)c(OC(F)F)n1 [Ex 12-119, N-(2-(difluoromethoxy)-6-methylpyridin-3-yl)-3-(2-isopropylphenyl)-1-(4-(methylsulfonamido)-4-oxobutanoyl)azetidine-3-carboxamide]	35 nM
Cc1ccc(NC(=O)C2(c3ccccc3C(C)C)CN(C(=O)CCCC#N)C2)c(OC(F)F)n1 [Ex 12-1, 1-(4-cyanobutanoyl)-N-(2-(difluoromethoxy)-6-methylpyridin-3-yl)-3-(2-isopropylphenyl)azetidine-3-carboxamide]	15 nM
Cc1ccc(NC(=O)C2(c3ccccc3C(C)C)CN(C(=O)[C@H]3C[C@H]3C(=O)O)C2)c(OC(F)F)n1 [Ex 12-97, (1R,2S)-2-(3-((2-(difluoromethoxy)-6-methylpyridin-3-yl)carbamoyl)-3-(2-isopropylphenyl)azetidine-1-carbonyl)cyclopropane-1-carboxylic acid]	13 nM
Cc1ccc(NC(=O)C2(c3nccnc3C(C)C)CN(S(N)(=O)=O)C2)c(OC(F)F)n1 [Ex 69, N-(2-(difluoromethoxy)-6-methylpyridin-3-yl)-3-(3-isopropylpyrazin-2-yl)-1-sulfamoylazetidine-3-carboxamide]	27 nM
CCOC(=O)C[C@H](N)C(=O)N1CC(C(=O)Nc2ccc(C)nc2OC(F)F)(c2ccccc2C(C)C)C1 [Ex 12-100, ethyl (S)-3-amino-4-(3-((2-(difluoromethoxy)-6-methylpyridin-3-yl)carbamoyl)-3-(2-isopropylphenyl)azetidin-1-yl)-4-oxobutanoate]	23 nM
COC(=O)C(C)(C)COC(=O)N1CC(C(=O)Nc2ccc(C)nc2OC(F)F)(c2ccccc2C(C)C)C1 [Ex 14-9, 3-methoxy-2,2-dimethyl-3-oxopropyl 3-((2-(difluoromethoxy)-6-methylpyridin-3-yl)carbamoyl)-3-(2-isopropylphenyl)azetidine-1-carboxylate]	42 nM
C=C(C)C(=O)OCCNC(=O)N1CCC(C(=O)Nc2ccc(C)nc2OC(F)F)(c2ccccc2C(C)C)CC1 [Ex 17-21, 2-(4-((2-(difluoromethoxy)-6-methylpyridin-3-yl)carbamoyl)-4-(2-isopropylphenyl)piperidine-1-carboxamido)ethyl methacrylate]	5 nM
Cc1ccc(NC(=O)C2(c3ccccc3C(C)C)CCN(C(=O)C[C@@H]3OC(C)(C)OC3=O)CC2)c(OC(F)F)n1 [Ex 12-36, (S)-N-(2-(difluoromethoxy)-6-methylpyridin-3-yl)-1-(2-(2,2-dimethyl-5-oxo-1,3-dioxolan-4-yl)acetyl)-4-(2-isopropylphenyl)piperidine-4-carboxamide]	21 nM
Cc1ccc(NC(=O)C2(c3ccccc3C(C)C)CN(C(=O)CN(CC(=O)O)C3CC3)C2)c(OC(F)F)n1 [Ex 43, N-cyclopropyl-N-(2-(3-((2-(difluoromethoxy)-6-methylpyridin-3-yl)carbamoyl)-3-(2-isopropylphenyl)azetidin-1-yl)-2-oxoethyl)glycine]	14 nM
Cc1ccc(NC(=O)C2(c3ccccc3C(C)C)CCNCC2)c(OC(F)F)n1 [Ex 4, N-(2-(difluoromethoxy)-6-methylpyridin-3-yl)-4-(2-isopropylphenyl)piperidine-4-carboxamide]	8 nM
Cc1ccc(NC(=O)C2(c3ccccc3C(C)C)CN(c3ncc(C(=O)O)o3)C2)c(OC(F)F)n1 [Ex 18-32, 2-(3-((2-(difluoromethoxy)-6-methylpyridin-3-yl)carbamoyl)-3-(2-isopropylphenyl)azetidin-1-yl)oxazole-5-carboxylic acid]	34 nM

— patent US12344597B2, “Alkoxy-substituted pyridinyl derivatives as LPA1 receptor antagonists and their use in the treatment of fibrosis” (IDORSIA PHARMACEUTICALS LTD, priority 2018, dated 2025)
